Structures can show the parent of a compound that is named as a salt.
What was measured:
[1] = prospective, multinational, multicentre, double-blind clinical study versus placebo: prevention of cardiovascular hospitalizations or of mortality; type: in vivo, patients; parameters: reduction in mortality from any cause: concentration or dose not given beside the values
Method: The patients had to have a history of atrial fibrillation or flutter and/or could be in normal sinus rhythm or in atrial fibrillation or flutter at inclusion.
The patient recruitment was carried out by taking into account the following inclusion criteria:
Inclusion Criteria: • 1) One of the following risk factors had to be present: • age equal to or above 70, or even above 75, possibly combined with at least one of the risk factors below: • hypertension (taking antihypertensives of at least two different classes), • diabetes, • history of cerebral stroke (transient ischemic event or completed cerebral stroke) or of systemic embolism, • left atrial diameter greater than or equal to 50 mm measured by echocardiography, • left ventricular ejection fraction less than 40%, measured by two-dimensional echography; • 2) availability of an electrocardiogram carried out during the past 6 months in order to document the presence or the history of atrial fibrillation or flutter; • 3) availability of an electrocardiogram carried out during the past 6 months in order to document the presence or absence of normal sinus rhythm.
Treatment was initiated using tablets containing either the placebo or an amount of dronedarone hydrochloride corresponding to 400 mg of dronedarone at a rate of one tablet in the morning during or shortly after breakfast and one tablet in the evening during or shortly after dinner.
The anticipated duration of the treatment was variable according to the time at which each patient was included in the study, and could range from a minimum of 12 months for the last patient included up to a maximum corresponding to the entire duration of the study (12 months+duration of inclusion), i.e. approximately 30 months for the first patients included.
The results obtained in this trial were analysed by the Kaplan Meier method for the figures, and the relative risk (RR) was estimated using Cox's proportional-effect regression model.
The relative risk (RR) is the ratio of the rates of occurrence of a hospitalization or of a death among the patients on dronedarone, relative to the patients on placebo.
The percentage reduction x of a given event (hospitalization, death, cardiovascular death, etc.) is calculated in the following way: […]

[2] = regulation of the blood potassium level (regular blood samples taken throughout the clinical study); type: in vivo, patients; conditions: after the 24th month, taking into account the starting value; compared to the placebo; p<0.0001
Source text: The potassium concentration-modulating effect is clearly documented in the study by virtue of the results of analyses of regular blood samples taken throughout the duration of the study in the context of the monitoring of vital parameters.
The variations in potassium (in mmol/l) between the first and the last administration of the medicament of the study are included in FIG. 8, in which B signifies basal level, D signifies day and M signifies month.

[3] = versus placebo, x=1−relative risk

## CCCCc1oc2ccc(NS(C)(=O)=O)cc2c1C(=O)c1ccc(OCCCN(CCCC)CCCC)cc1 [dronedarone hydrochloride]
[1]; 2301 patients in treated group, 400 mg dronedarone twice daily, placebo group 917 events
  events (cardiovascular hospitalizations and mortality, principal judgment criterion): 734
[1]; 2301 patients in treated group, placebo group 35 sudden deaths
  sudden deaths: 14
[1]; 2301 patients in treated group, placebo group 94 cardiovascular deaths
  cardiovascular deaths: 65
[1]; 2301 patients in treated group, placebo group 139 deaths
  deaths (mortality from any cause): 116
[1]; 2301 patients in treated group, placebo group 859 events
  events (cardiovascular hospitalizations): 675
[1]; 2301 patients in treated group, placebo group 873 events
  events (cardiovascular hospitalizations and sudden death): 684
[1]; 2301 patients in treated group, placebo group 892 events
  events (cardiovascular hospitalizations and cardiovascular mortality): 701
[1]; versus placebo, Cox model, p=0.0031
  relative risk (sudden death): 0.405
[1]; versus placebo, Cox model, p=0.0252
  relative risk (cardiovascular mortality): 0.698
[1]; versus placebo, Cox model, p=0.1758
  relative risk (mortality from any cause): 0.844
[1]; versus placebo, Cox model, p=2×10^−8
  relative risk (cardiovascular hospitalizations and deaths): 0.758
[1]; versus placebo, Cox model, p=9×10^−9
  relative risk (cardiovascular hospitalizations): 0.745
[1]; versus placebo, Cox model, p=45×10^−10
  relative risk (cardiovascular hospitalizations and cardiovascular deaths): 0.745
[1]; versus placebo, Cox model, p=48×10^−10
  relative risk (cardiovascular hospitalizations and sudden deaths): 0.743
[1]; [3]
  reduction in cardiovascular hospitalizations: 25.5%
  reduction in cardiovascular hospitalizations and cardiovascular deaths: 25.5%
  reduction in cardiovascular hospitalizations and deaths: 24.2%
  reduction in cardiovascular hospitalizations and sudden deaths: 25.5%
  reduction in cardiovascular mortality: 30.2%
  reduction in mortality from any cause: 15.6%
  reduction in sudden death: 59.5%

## CCCCc1oc2ccc(NS(C)(=O)=O)cc2c1C(=O)c1ccc(OCCCN(CCCC)CCCC)cc1 [dronedarone, 2-n-Butyl-3-[4-(3-di-n-butylaminopropoxy)benzoyl]-5-methylsulphonamidobenzofuran]
[1]; hypertensive patients
  reduction in the risk of sudden death: approximately 62%
[1]; patients not taking diuretics, compared with the placebo
  reduction in the risk of sudden death: approximately 34%
[1]; patients on diuretics, compared with the placebo
  reduction in the risk of sudden death: approximately 70.4%
[1]; patients who were not hypertensive
  reduction in the risk of sudden death: approximately 45.5%
[2]
  change in blood potassium level (analysis of covariance): significant different in favour of dronedarone
